Experimental data reported in a compilation of properties of binary mixtures (doi:10.1007/s11814-009-0129-3).

Assay: xn = mol fraction of the nth substance listed
Conditions: 101 kPa

F[B-](F)(F)F.[Li+] + CCCC[n+]1ccn(C)c1.[I-]
electrical conductivity [S/m]
Conditions	298.15 K	303.15 K	308.15 K	313.15 K	318.15 K	323.15 K
x1 = 0.1	0.0385	0.0432	–	0.0519	0.0577	0.0647
x1 = 0.2	–	0.0477	0.0515	0.0584	0.0704	–
x1 = 0.3	0.042	0.0488	0.0505	0.0512	0.0597	0.088
x1 = 0.4	0.035	0.0392	0.0461	0.0477	0.0513	0.0554
x1 = 0.5	0.0312	0.0373	0.0425	0.0463	0.0501	0.0549

CCCC[n+]1ccn(C)c1.[I-] + [Li+].[B-](F)(F)(F)F
x2 = 0
Conditions	electrical conductivity [S/m]
298.15 K	0.0234
303.15 K	0.0262
313.15 K	0.0308
318.15 K	0.0326
323.15 K	0.0345
